Source: patent US20140088144A1, “INHIBITING MICROBIAL INFECTIONS” (THE UNIVERSITY OF KANSAS, priority 2012, published 2014)

Assays:
[1] = system: LacI-repressed hts-lacZ fusion; experiment: LacI-repressed hts-lacZ control reporter fusion (β-galactosidase); type: cell-based, E. coli; details: hts-lacZ control (SME3359)
Description: The control strain for the secondary high-throughput screen and subsequent experiments was SME3359, and carries the LacI-repressed fusion and LacI-expressing pHG165lacI. The fusion consists of lacZ under the control of an artificial promoter (Phts) with an induced expression level similar to that of the induced rhaBAD operon. Phts is regulated by Lad and induced with IPTG. The Phts core promoter elements include a near-consensus −35 sequence and a −10 sequence followed by a lacO1 operator sequence that overlaps the transcription start site with the same spacing as lacO1 at lacZYA. To construct the upstream half of Phts, oligo 2829 was annealed to oligo 2788 and the primers were extended using the Expand High Fidelity PCR System (Roche Applied Science, Indianapolis, Ind.). The downstream half of the Phts promoter was constructed by similarly annealing and extending oligos 2789 and 2790.
The top hit identified in the screen was 1-ethyl-4-(nitromethyl)-3-quinolin-2-yl-4H-quinoline, Compound 2. […] Lysis/ONPG buffer (50 μL, as in Primary Screen) was added to each well and the plate was immediately placed into a PowerWave XS plate reader (BioTek Instruments, Inc., Winooski, Vt.), set to read the OD420 of each well every 15 min for 4 hr. […] Due to differences in kinetics of lacZ reporter expression, the rhaB-lacZ strains were analyzed at 4 hours and the hts-lacZ strain was analyzed at 1 hr. Percent activity was calculated for each condition as described above, using the single time point with appropriate OD420 levels for each strain. […] IC50 and maximal inhibition values were calculated using the XLfit add-in for Microsoft Excel (ID Business Solutions, Guildford, UK), and graphs were drawn using Prism (GraphPad, La Jolla, Calif.).
In vivo dose-response assays were performed using a procedure described previously. […] Bacterial cultures were mixed with varying concentrations of SE-1 (2.2% DMSO, final), induced with 6.5 mM IPTG for 3 h at 37° C., lysed and β-galactosidase activity was measured. […] IC50 values were calculated and graphs were drawn using Prism (GraphPad, La Jolla, Calif.).

[2] = system: human epithelial cells (HeLa); experiment: Alamar Blue [resazurin] metabolic activity of tissue culture cells used in invasion assays; type: cell-based
Description: We expect that Compound 1 can impact host cell interaction but have little or no effect on growth rate of Shigella, based on our results with non-pathogenic E. coli strains.

For `CCCCN1C=C(c2ccc3ccccc3n2)C(C[N+](=O)[O-])c2ccccc21` (stereo not drawn) [Compound 1, 1-butyl-4-(nitromethyl)-3-quinolin-2-yl-4H-quinoline], the “inhibition of the LacI-repressed fusion” value [1] was “small amount of non-specific inhibition”, the “inhibition of the LacI-repressed fusion” value ([1]; listed as SE-1) was “some non-specific inhibition” and the “metabolic activity of the tissue culture cells” value [2] was “did not have any effect”.
